# Laboratory results taken from patent US20260306421A1, “SYSTEMS AND METHODS FOR TRANSDERMAN PATCH DELIVERY” (VITAMAX PATCH WHOLESALER LLC, priority 2022, published 2026).
# Read-outs that look alike come from different tables or passages of the source.
# Experiments:
# [1] = Solubility of iron chloride hexahydrate and iron complexes (visual / assayed); format: physicochemical
# Method: Due to the high number of test samples (6 complexes plus the starting material, iron chloride hexahydrate) a visual solubility screen was used to screen the solubility in a range of solvents. […] Quantitative determination was performed by either incubating the complex in excess in the solvent using a shaking 37° C. water bath for 48 h or sonicating it for 2 hours at 40° C. or leaving overnight on a 50° C. hot plate. Once incubation period was completed, the exact solubility in a particular solvent was assayed (using the iron assay) after centrifugation (i.e. assay iron content in the supernatant using the Ferrozine® assay).
# [2] = Iron complex adhesive compatibility and loading screen; format: physicochemical
# Method: Pre-formulation studies were performed to determine the compatibility of the iron complexes with a range of transdermal patch adhesives (Table 15).
# The compatibility of the complexes with the patch adhesives was assessed by mixing and visually checking the clarity of the mixture.
# In the adhesives that were computable with the iron complexes the maximum drug loading of the complexes in the adhesive following solvent evaporation was determined. This was achieved by mixing the drug, adhesive and co-solvents until a clear solution was obtained at different drug:adhesive ratios and placing few drops of the mixture onto the patch backing sheet, leaving it to dry for 3-4 h, and examining the formed film on the surface of the backings for evidence of drug crystals.
# Following complete drying of the solvents, the adhesive layer was covered by a release liner, compressed, and then cut using 34 mm circular manual die cutter (FIG. 23).
# [3] = Franz cell porcine skin permeation and deposition of iron from solutions; format: in vitro ADME
# Method: The permeation of the iron complexes from the formulations into and across porcine skin mounted on Franz cells with a receiver fluid was tested (FIG. 4). This was based on the principles of the FDA, SUPAC-SS guidelines. The developed colorimetric assay method was used for iron quantification.
# On the day of the experiment, the skin was defrosted. For the full thickness studies, the subcutaneous fat removed (2.5 mm thick) and for the dermatomes skin studies the tissued was dermatomed to a 1 mm thickness. The tissue was cut into the appropriate size sections (2.19±0.21 cm^2) and mounted between donor and receiver compartments of Franz diffusion cells with the SC facing the donor compartment. Each cell was sealed using parafilm and 12 mm magnetic stir bars were placed into the receiver compartment. The receiver compartment was filled with the desired receiver solution and the Franz cells were placed in a stirring water bath at 37° C. Cells were allowed to equilibrate for 30 min after which the receiver fluid using was mixed using a syringe and the “zero hour” sample was withdrawn from the arm and compensate with the same volume of fresh pre-warmed solution. Following zero-hour sampling, the donor solution was placed in the donor compartment and covered with parafilm. Samples were withdrawn and compensated with fresh receiver solution at set time intervals for a 24 h duration. The iron in each sample was quantified using the method specified in Section 2.2.2.1. […] There was no matrix interference noted in the assay. […] For iron maltol a 80:20 PG:water receiver was used along with a complementary calibration for iron assay (iron chloride in PG:water). The donor solution for the iron maltol made at pH 1.6 was 200 μL of 100 mg/mL complex in Transcutul®, for iron maltol made at pH 4 the donor solution was 200 μL of 23 mg/mL complex in PG and for iron maltol made at pH 4 the donor solution was 150 μL of 16 mg/mL complex in 7.5:1.5:1:1 water:PG:dimethicone:ethanol.
# Once the permeation studies were completed the donor solutions were collected into bottles containing the extraction solution. This was followed by skin surface cleaning using four cotton buds, the first two were wetted by the extraction fluid and the second two were used dry. Then two tape striping procedures were performed using 2 tapes to remove any iron on the skin surface with the tape being added to the donor solution and cotton buds in the donor recover vial. For the full skin thickness skin, the Stratum corneum, the dermal and the epidermal layers were isolated in the same way as the recovery method (Section 2.3.2.1). Extraction fluid (50:50 PBS:ethanol) was then added to the tissues, 4 mL to the Stratum corneum, and 2 mL for each of the epidermis and dermis. For the dermatomed skin the whole skin section was chopped up and placed in a 2 mL extraction fluid (ethanol).
# The Stratum corneum samples were placed on vibrating plate for a minimum of 2 h to extract the iron and then vortexed prior assay. The epidermis, dermis or dermatomed samples however were incubated with the extraction fluid for 1 h after which were transferred to Eppendorf tubes, one stainless steel 5 mm bead was added and the samples were loaded into the TissuLyser II (Qiagen, Germany) for 30-15 min at 30 Hz. The samples were then centrifuged (5 min at 13,000 rpm) and supernatant assayed.
# [4] = Iron complex reservoir solvent solubility screening; format: physicochemical
# Excerpt: Iron complex was again screened with a range of suitable excipients and solvents to formulate a solution of high concentration that could be loaded into the patch reservoir. The solvents screened included ethanol, methanol, PG, PEG400, SDS, Tween 85, Span 20, Kolliphore®, Natrsol M250 and dimethicone (Note: methanol is not suitable for formulation but it was used to increase solubility in the other solvents. It was evaporated prior to formulation testing).
# [5] = Chemical stability of cholecalciferol and cholecalciferol phosphate disodium in donor, extraction and receiver fluids; format: physicochemical; settings: for remaining at 24 h: 37° C.
# Method: To assess the chemical stability of the test agents in the liquids in which they were to be dissolved for the skin permeation experiments, 1 mg/mL solutions of cholecalciferol and cholecalciferol phosphate disodium in propylene glycol (PG) were prepared and incubated at 37° C. for 24 h. In addition, 100 μg/mL cholecalciferol in 50:50 PG:ethanol mixture, 100 μg/mL cholecalciferol phosphate disodium in 90:10 methanol:water mixture as well as and in 50% PG 40% Methanol: 10% water pH 3.2 (90:10) were also incubated at 37° C. for 24 hours.
# [6] = Solubility of cholecalciferol and cholecalciferol phosphate (disodium, acid); format: physicochemical; settings: read-out: Solubility
# Method: Aliquots of cholecalciferol, cholecalciferol phosphate disodium, and cholecalciferol phosphate acid were added to a range of solvents including propylene glycol (PG), distilled water, methanol, ethyl acetate, ethanol, n-hexane, and the visual solubility was determined. A precise assessment of the saturation solubility was for some of the solvent systems was made using high-performance liquid chromatography (HPLC). In the HPLC solubility studies, an excess of each solute was added into 2 mL of each test solvent. The solutions were left stirring overnight at room temperature, (RT), 22° C. The saturation of the solutions was confirmed by the visual appearance of crystals and the drug suspensions were filtered through 0.2 μm cellulose acetate syringe filters, diluted with excess of mobile phase, and the solute concentration of each sample was assessed using HPLC.
# [7] = donor liquid paraffin:ethanol, 24 h
# [8] = Iron maltol made at pH 7.4, 10 mg complex, 62.5 μL PG, 60 μL ethanol, 125 μL water, 62.5 μL Kolliphore
# [9] = Iron maltol made at pH 7.4, 10 mg complex, 125 μL PG, 60 μL ethanol, 62.5 μL water, 62.5 μL Kolliphore
molecule,measurement,setting,value
"CCc1occc(=O)c1[O-].CCc1occc(=O)c1[O-].CCc1occc(=O)c1[O-].[Fe+3] [Iron ethyl maltol made at pH 7.4, iron ethyl maltol]",Solubility of complex (visual),[1]; PEG400,<8 mg/mL Iron
same,Solubility of complex,[1]; PG,2.7 mg/mL Iron
same,"Solubility, equivalent elemental iron",[1]; PG,320 µg/mL
same,Solubility of complex,[1]; Saline,360 μg/mL Iron
same,"Solubility, elemental iron",[1]; Saline,(44 μg/mL
same,Solubility in DURO-TAK 9301 patch,"[2]; drug loading 2.5-10%, no permeation enhancer",Precipitated
same,Solubility in DURO-TAK 9301 patch,"[2]; drug loading 4%, 2 mg PEG400",Clear
same,Solubility in DURO-TAK 9301 patch,"[2]; drug loading 4%, 2 mg PG",Clear
same,Solubility in DURO-TAK 9301 patch,"[2]; drug loading 4%, no permeation enhancer",Clear
same,Solubility in DURO-TAK 9301 patch,"[2]; drug loading 5%, 2.5 mg Transcutol",Precipitated
same,Solubility in DURO-TAK 9301 patch,"[2]; drug loading 5%, 2.6 mg PEG400",Precipitated
same,Solubility in DURO-TAK 9301 patch,"[2]; drug loading 5%, 5 mg PEG400",Precipitated
same,Solubility in DURO-TAK 9301 patch,"[2]; drug loading 5%, 5 mg Transcutol",Clear
same,Solubility in DURO-TAK 9301 patch,"[2]; drug loading 6%, 3.3 mg PEG400",Precipitated
same,Solubility in DURO-TAK 9301 patch,"[2]; drug loading 7.5%, 4 mg Transcutol",Precipitated
same,Solubility in DURO-TAK 9301 patch,"[2]; drug loading 7.5-10%, 4-5.5 mg PG",Precipitated
same,Solubility in DURO-TAK 9301 patch,"[2]; drug loading 10-7.5%, 5.5-4 mg PEG400",Precipitated
"CCc1occc(=O)c1[O-].CCc1occc(=O)c1[O-].CCc1occc(=O)c1[O-].[Fe+3] [Iron ethyl maltol made at pH 4, iron ethyl maltol]",Solubility of complex,[1]; PEG400,15 mg/mL Iron
same,"Solubility, equivalent elemental iron",[1]; PEG400,(1.8 mg/mL
same,Solubility of complex,[1]; PG,8.3 mg/mL Iron
same,"Solubility, equivalent elemental iron",[1]; PG,1 mg/ml mg/mL
iron oleate,"deposition, all layers combined","[3]; donor Miglyol, 24 h",3.7 μg/cm^2
same,elemental iron permeated the skin,"[3]; donor Miglyol, 24 h",2.5±1.8 μg/cm^2
same,"deposition, all layers combined",[3]; [7],5.3 μg/cm^2
same,elemental iron permeated the skin,[3]; [7],4.4±1.5 μg/cm^2
"CCC(=O)[O-].CCC(=O)[O-].CCC(=O)[O-].[Fe+3] [Iron propionate made at pH 4, iron propionate]",iron passing through the skin,[3]; applied as solution,neither the patch nor the solution allowed iron to pass through the skin
same,deposition into the skin,[3]; applied to the skin as a PG solution,8 μg/cm^2
same,permeation and deposition in the skin,"[3]; solutions, 24 h",permeated and deposited in the skin
"Cc1occc(=O)c1[O-].Cc1occc(=O)c1[O-].Cc1occc(=O)c1[O-].[Fe+3] [Iron maltol, iron maltol]","Observation (solubility, complex)","[4]; Iron maltol made at pH 4, 10 mg complex, 50 μL 2% Nitrosol, 50 μL PG",22000 µg/mL
same,Observation,"[4]; Iron maltol made at pH 4, 20 mg complex, 0.1 mL Kolliphore, 0.1 mL PEG400",Precipitated
same,Observation,"[4]; Iron maltol made at pH 4, 20 mg complex, 0.1 mL Kolliphore, 0.1 mL PEG400, 10% SDS",Precipitated
same,Observation,"[4]; Iron maltol made at pH 4, 20 mg complex, 0.2 mL Kolliphore",Precipitated
same,Observation,"[4]; Iron maltol made at pH 4, 100 mg complex, 2 mL methanol, 1 mL 80:20 PEG400:PEG1000, precipitate upon methanol evaporation",Precipitate
same,Observation,[4]; [8],Clear
same,Visual solubility (complex),[4]; [8],(32 mg/mL
same,Observation,"[4]; Iron maltol made at pH 7.4, 10 mg complex, 62.5 μL PG, 62.5 μL water, 125 μL Kolliphore",Precipitated
same,Observation,[4]; [9],Clear
same,Visual solubility (complex),[4]; [9],(32 mg/mL
same,Observation,"[4]; Iron maltol made at pH 7.4, 20 mg complex, 6 μL Span 20, 0.125 mL ethanol, 0.5 mL PG",Precipitated
same,Observation,"[4]; Iron maltol made at pH 7.4, 30 mg complex, 6 μL Tween 85, 0.125 mL ethanol, 0.5 mL PG",Precipitated
same,Observation,"[4]; Iron maltol made at pH 7.4, 40 mg complex, 12 mg SDS, 0.125 mL ethanol, 0.5 mL PG",Precipitated
same,Solubility of complex (visual),[1]; Chloroform,≥20 mg/mL Iron
same,Solubility of complex (visual),[1]; Ethanol,≥6 mg/mL Iron maltol*
same,Solubility of complex (visual),[1]; Ethyl acetate,<6 mg/mL Iron maltol*
same,Solubility of complex (visual),[1]; Hexane,<6 mg/mL Iron maltol*
same,Solubility of complex (visual),[1]; Methanol,≥18 mg/mL Iron
same,Solubility of complex (visual),[1]; Oleic acid,<6 mg/mL Iron maltol*
same,Solubility of complex (visual),[1]; Propanol,<6 mg/mL Iron maltol*
same,Solubility of complex (visual),[1]; Triaceten,<6 mg/mL Iron maltol*
same,compatibility with adhesives,[2],only compatible with DURO-TAK 9301
same,(maximum) complex loading achieved in adhesive,[2]; methanol stock solution 10 mg/mL,4%
same,complex loading achieved in adhesive patch,[2]; methanol stock solution 18 mg/mL,8.5%
"C=C1CC[C@H](O)C/C1=C/C=C1\CCC[C@]2(C)[C@@H]([C@H](C)CCCC(C)C)CC[C@@H]12 [Cholecalciferol, reference compound]",remaining at 24 h,[5]; PG,93 ± 13%
same,chemical stability (in words),[5]; conclusions,indication of chemical instability
same,remaining at 24 h,[5]; extraction fluid 50:50 PG:ethanol,92 ± 8%
same,Solubility,"[6]; organic solvent or mixture, solvent PG",7800 ± 190 µg/mL
same,Solubility,[6]; solvent PG + 5% water,2400 ± 2 µg/mL
same,Solubility,[6]; solvent PG + 10% water,1100 ± 5 µg/mL
same,Solubility,[6]; solvent PG + 20% water,700 ± 4 µg/mL
